Calls of active or inactive are those of the source. The calls are words filed in the database; no cut-off is given here.
Columns and labels:
[1] = target: T1, Protein deacetylase HDAC6 (Homo sapiens) (UniProt Q9UBN7); experiment: Binding affinity to full length human recombinant HDAC6 expressed in Sf9 baculovirus system assessed as residence time (1/koff)
T1 sequence (whole entry): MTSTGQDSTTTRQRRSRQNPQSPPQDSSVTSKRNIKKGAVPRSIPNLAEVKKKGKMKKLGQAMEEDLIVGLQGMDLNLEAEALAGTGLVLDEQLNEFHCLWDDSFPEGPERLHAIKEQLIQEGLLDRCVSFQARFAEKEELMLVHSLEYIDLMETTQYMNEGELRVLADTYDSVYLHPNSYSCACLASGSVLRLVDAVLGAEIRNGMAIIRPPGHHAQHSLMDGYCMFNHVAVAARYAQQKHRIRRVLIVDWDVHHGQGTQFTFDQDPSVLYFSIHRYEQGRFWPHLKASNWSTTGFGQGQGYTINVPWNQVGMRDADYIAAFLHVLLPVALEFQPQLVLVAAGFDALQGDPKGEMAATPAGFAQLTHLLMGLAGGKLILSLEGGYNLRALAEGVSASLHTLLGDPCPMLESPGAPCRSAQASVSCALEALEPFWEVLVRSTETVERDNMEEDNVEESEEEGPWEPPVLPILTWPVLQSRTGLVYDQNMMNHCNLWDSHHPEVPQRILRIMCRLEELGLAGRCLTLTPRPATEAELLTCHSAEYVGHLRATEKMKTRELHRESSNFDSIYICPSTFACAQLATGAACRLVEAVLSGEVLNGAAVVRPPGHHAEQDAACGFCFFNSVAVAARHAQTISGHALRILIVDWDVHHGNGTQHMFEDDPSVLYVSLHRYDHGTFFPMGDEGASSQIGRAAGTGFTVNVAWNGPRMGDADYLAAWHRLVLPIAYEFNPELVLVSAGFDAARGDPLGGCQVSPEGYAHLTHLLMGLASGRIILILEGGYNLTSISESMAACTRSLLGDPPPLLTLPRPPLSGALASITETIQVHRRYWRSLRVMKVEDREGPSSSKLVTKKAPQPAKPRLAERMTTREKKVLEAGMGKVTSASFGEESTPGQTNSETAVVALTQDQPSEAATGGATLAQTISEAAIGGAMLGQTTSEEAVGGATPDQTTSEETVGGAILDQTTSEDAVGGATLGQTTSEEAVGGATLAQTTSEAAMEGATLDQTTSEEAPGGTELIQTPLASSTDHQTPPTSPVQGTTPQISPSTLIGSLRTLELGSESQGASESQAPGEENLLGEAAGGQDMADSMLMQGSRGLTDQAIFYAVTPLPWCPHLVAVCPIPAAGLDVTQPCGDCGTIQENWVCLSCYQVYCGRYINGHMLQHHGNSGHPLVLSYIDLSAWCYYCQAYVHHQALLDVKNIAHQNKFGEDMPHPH

[2] = Cytotoxicity against human HD-MB03 cells assessed as inhibition of cell growth incubated for 72 hrs measured by spectrophotometer analysis; type: functional, cell-based; settings: HD-MB03, 72 h
[3] = target: T1, Protein deacetylase HDAC6 (Homo sapiens); experiment: Inhibition of full length human recombinant HDAC6 in human MV4-11 cells assessed as acetylation of histone H3 at 5 uM by Western blot analysis; type: cell-based; settings: time 6.0 hrs
[4] = Competitive inhibition of N-terminal His-SUMO tagged zebra fish recombinant HDAC6 catalytic domain 2 transfected with pET28b(+) vector in Escherichia coli BL21 (DE3) RILP cells incubated for 10 mins followed by addition of FITC-M344 measured af ter 10 mins by fluorescence polarization assay; set-up: species or system Danio rerio
Histone deacetylase 5 = Histone deacetylase 5 (Homo sapiens, UniProt Q9UQL6); experiment: Inhibition of full length human recombinant HDAC5 expressed in Sf9 baculovirus system using FAM-labeled acetylated peptide as substrate by measuring fluorescence intensity by EMSA method
Sequence of Histone deacetylase 5 (Q9UQL6 whole entry): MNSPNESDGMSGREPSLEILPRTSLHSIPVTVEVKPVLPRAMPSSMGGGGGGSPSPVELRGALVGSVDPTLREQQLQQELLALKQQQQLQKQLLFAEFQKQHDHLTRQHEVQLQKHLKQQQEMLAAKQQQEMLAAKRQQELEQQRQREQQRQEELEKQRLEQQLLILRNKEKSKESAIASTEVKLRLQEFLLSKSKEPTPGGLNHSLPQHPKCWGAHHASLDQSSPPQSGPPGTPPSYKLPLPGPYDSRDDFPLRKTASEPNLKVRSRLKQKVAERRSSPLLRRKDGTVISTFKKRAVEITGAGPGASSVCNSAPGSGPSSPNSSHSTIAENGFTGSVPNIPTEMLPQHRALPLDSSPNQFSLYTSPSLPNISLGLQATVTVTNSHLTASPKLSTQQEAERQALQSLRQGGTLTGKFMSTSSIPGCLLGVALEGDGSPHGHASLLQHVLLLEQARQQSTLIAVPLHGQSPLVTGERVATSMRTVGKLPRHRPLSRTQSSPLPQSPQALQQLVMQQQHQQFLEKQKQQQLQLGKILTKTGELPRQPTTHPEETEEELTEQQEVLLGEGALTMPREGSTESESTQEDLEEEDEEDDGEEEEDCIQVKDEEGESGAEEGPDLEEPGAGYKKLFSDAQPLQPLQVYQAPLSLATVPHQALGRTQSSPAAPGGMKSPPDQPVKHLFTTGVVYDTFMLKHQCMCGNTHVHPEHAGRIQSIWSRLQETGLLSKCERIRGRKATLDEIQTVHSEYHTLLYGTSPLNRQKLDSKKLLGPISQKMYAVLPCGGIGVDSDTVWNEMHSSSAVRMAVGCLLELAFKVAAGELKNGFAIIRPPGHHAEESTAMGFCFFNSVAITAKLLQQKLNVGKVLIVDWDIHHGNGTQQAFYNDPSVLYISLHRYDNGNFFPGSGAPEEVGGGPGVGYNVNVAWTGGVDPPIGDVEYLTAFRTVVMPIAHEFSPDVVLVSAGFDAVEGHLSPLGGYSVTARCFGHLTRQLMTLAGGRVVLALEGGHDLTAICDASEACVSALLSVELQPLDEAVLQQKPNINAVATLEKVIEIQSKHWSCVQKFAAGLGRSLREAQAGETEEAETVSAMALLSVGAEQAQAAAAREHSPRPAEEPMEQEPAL

[5] = target: T1, Protein deacetylase HDAC6 (Homo sapiens); experiment: Inhibition of full length human recombinant HDAC6 in human MV4-11 cells assessed as increase in acetylation of alpha-tubulin at 0.1 uM for 6 hrs by Western blot analysis; type: cell-based
Histone deacetylase 1 = Histone deacetylase 1 (Homo sapiens, UniProt Q13547); experiment: Inhibition of full length human recombinant HDAC1 expressed in Sf9 baculovirus system using FAM-labeled acetylated peptide as substrate by measuring fluorescence intensity by EMSA method
Sequence of Histone deacetylase 1 (Q13547 whole entry): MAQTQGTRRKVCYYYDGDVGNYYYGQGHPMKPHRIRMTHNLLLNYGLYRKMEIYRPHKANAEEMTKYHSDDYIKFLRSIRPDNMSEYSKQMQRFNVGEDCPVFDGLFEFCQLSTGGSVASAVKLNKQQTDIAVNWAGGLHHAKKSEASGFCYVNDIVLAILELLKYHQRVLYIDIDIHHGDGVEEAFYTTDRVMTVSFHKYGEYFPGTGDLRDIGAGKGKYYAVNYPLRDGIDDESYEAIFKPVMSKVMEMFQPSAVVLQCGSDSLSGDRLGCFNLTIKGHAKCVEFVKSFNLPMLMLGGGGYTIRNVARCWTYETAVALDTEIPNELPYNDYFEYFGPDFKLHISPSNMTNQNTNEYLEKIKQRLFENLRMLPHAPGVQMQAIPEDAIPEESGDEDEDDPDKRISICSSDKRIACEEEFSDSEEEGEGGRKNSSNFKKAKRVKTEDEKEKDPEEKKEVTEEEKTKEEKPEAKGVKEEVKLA

MM1.S = experiment: Cytotoxicity against human MM1.S cells assessed as inhibition of cell growth incubated for 72 hrs measured by spectrophotometer analysis; type: functional, cell-based
in vitro = settings: human, MRC9 cells
MV4-11 [6] = experiment: Induction of apoptosis in human MV4-11 cells assessed as late apoptotic cells at 1 uM after 24 hrs by Annexin V/PI staining based flow cytometric analysis (Rvb=2%); type: functional
Histone deacetylase 7 = target: T2, Histone deacetylase 7 (Homo sapiens, UniProt Q8WUI4); experiment: Inhibition of full length human recombinant HDAC7 expressed in Sf9 baculovirus system using FAM-labeled acetylated peptide as substrate by measuring fluorescence intensity by EMSA method
T2 sequence (Q8WUI4 whole entry): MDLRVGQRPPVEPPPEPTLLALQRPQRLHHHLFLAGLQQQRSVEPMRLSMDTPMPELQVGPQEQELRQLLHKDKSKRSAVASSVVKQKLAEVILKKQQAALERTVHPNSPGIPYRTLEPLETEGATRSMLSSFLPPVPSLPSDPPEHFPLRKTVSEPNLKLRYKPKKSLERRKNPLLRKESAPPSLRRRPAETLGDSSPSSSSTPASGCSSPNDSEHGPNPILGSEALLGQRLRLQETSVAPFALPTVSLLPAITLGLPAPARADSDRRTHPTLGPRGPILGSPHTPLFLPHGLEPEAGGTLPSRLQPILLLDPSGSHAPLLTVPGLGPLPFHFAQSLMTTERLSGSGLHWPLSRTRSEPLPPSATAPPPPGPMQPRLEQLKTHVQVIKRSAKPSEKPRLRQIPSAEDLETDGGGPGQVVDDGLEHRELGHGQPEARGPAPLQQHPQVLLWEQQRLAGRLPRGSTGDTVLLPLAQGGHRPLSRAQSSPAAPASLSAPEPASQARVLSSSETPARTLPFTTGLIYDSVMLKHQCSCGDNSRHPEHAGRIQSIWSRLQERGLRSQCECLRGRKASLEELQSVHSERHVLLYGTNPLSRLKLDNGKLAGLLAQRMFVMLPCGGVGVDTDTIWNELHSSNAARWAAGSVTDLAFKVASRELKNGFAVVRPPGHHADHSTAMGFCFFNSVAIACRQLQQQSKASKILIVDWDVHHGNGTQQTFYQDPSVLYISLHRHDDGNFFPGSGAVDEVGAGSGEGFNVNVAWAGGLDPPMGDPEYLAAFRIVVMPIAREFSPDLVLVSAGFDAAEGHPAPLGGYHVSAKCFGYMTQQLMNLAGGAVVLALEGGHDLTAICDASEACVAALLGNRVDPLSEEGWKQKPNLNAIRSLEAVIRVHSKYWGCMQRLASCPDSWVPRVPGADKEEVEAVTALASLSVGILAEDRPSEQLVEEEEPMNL

MV4-11 [7] = experiment: cells; type: functional, cell-based; settings: Homo sapiens, MV4-11, 72 h
[8] = Cytotoxicity against human primary pooled fibroblasts cells assessed as inhibition of cell growth incubated for 72 hrs measured by spectrophotometer analysis; type: toxicity, cell-based, Fibroblast

TIME [1]: 0.133 h
inhibition [3]: Active
IC50 (Histone deacetylase 5): > 3000 nM
inhibition [5]: Active
IC50 (Histone deacetylase 1): > 5000 nM
IC50 at 72 h (in vitro): > 50000 nM
IC50 (Histone deacetylase 7): > 5000 nM
IC50 (MV4-11 [7]): 1190 nM
SMILES: CC(C)N(Cc1ccc(C(=O)NO)cc1)S(=O)(=O)c1cc(F)c(F)c(F)c1F
IC50 [2]: 130 nM
IC50 [4]: 139 nM
IC50 (MM1.S): 1380 nM
Activity (MV4-11 [6]): 10.88%
IC50 at 72 h [8]: 8800 nM

Reference: ChEMBL document CHEMBL5154721, “Discovery of HDAC6-Selective Inhibitor NN-390 with in Vitro Efficacy in Group 3 Medulloblastoma” (J Med Chem, 2022)
